Assay results published in article PMC10100342, “Thiamyxins: Structure and Biosynthesis of Myxobacterial RNA‐Virus Inhibitors” (Angewandte Chemie (International Ed. in English), 2022).
Values after ≈ are worked out from the molar mass of the structure shown. Values joined by “and” are separate entries in the source; they are usually repeats but may differ in a detail not shown here. Identical values can stand only once. Like-named read-outs stand apart in the source and are kept apart here.

Assays:
[1] = system: Huh-7.5 Fluc infected
[2] = system: hCoV-229E-luc; assay: organism not typed; type: cell-based, alphacoronavirus HCoV-229E
[3] = in vitro; settings: human
[4] = Cell viability (CellTiter Glo) of Huh-7 cells in parallel to ZIKV antiviral test; settings: human
[5] = system: Mucor hiemalis DSM-2656; assay: Antimicrobial activity (MIC); settings: DSM2656, read-out: MIC Mucor hiemalis DSM-2656
[6] = system: Micrococcus luteus DSM-1790; assay: Antimicrobial activity (MIC); settings: DSM1790, read-out: MIC Micrococcus luteus DSM-1790
[7] = system: Candida. albicans DSM-1665; assay: Antimicrobial activity (MIC); settings: DSM1665, read-out: MIC Candida. albicans DSM-1665
[8] = system: Bacillus subtilis DSM-10; assay: Antimicrobial activity (MIC); settings: DSM10, read-out: MIC Bacillus subtilis DSM-10
[9] = system: DENV-R2A; assay: microbe, parasite or virus in culture; settings: Dengue virus, Huh-7, 48 h, read-out: IC50 against DENV-R2A
[10] = in vitro; settings: human; remark: listed apart in the source
[11] = system: DENV-R2A; settings: CC50 Huh-7 versus IC50 DENV-R2A
[12] = system: ZIKV-H/PF/2013; assay: microbe, parasite or virus in culture; type: cell-based; settings: Zika virus, Huh-7, 48 h, read-out: IC50 against ZIKV-H/PF/2013
[13] = system: Candida albicans, Mucor hiemalis, Bacillus subtilis and Micrococcus luteus; assay: Antimicrobial test panel (whole-panel statements); settings: in the tested concentrations
Method: All thiamyxins except congener A, which was only produced in low amounts, were tested against two
Gram-positive and two fungal pathogens.

[14] = Huh-7.5/Fluc cells, 48 h, 33 °C, Renilla luciferase, read-out: IC50 against hCoV-229E-luc
[15] = read-out: IC50 against hCoV-229E-luc, Huh-7.5/Fluc cells, 48 h, 33 °C, Renilla luciferase

Compound: COC(=O)/C=C(\OC)[C@H](C)[C@H](/C=C/c1csc(CCCCCCCC(C)C)n1)OC [Fulvuthiacene A]
- CC50 [1]: > 10 µM
- IC50 [2, 14]: 1.95 µM

Compound: COC(=O)/C=C(\OC)[C@H](C)[C@H](/C=C/c1csc(CCCCCC(C)C)n1)OC [Fulvuthiacene B]
- CC50 [1]: > 10 µM
- IC50 [2, 14]: 0.97 µM

Compound: C=C1NC(=O)C2(C)CSC(=N2)c2csc(n2)C2(C)CSC(=N2)C(C(C)CC)NC(=O)C(C)NC(=O)C(=CC(C)C)COC(=O)c2csc(n2)C(C(C)C)N(C)C(=O)C(COC)NC1=O (stereo not drawn) [Thiamyxin A]
- CC50 [3]: > 10 µM
- IC50 ([2]; Huh7.5, 48 h, read-out: IC50 against hCoV-229E-luc, Huh-7.5/Fluc cells, 48 h, 33 °C, Renilla luciferase): 2.49 µM
- IC50 [2, 15]: 2.47 µM

Compound: C=C1NC(=O)C2(C)CSC(=N2)c2csc(n2)C2(C)CSC(=N2)C(C(C)CC)NC(=O)C(C)NC(=O)C(=CC(C)C)COC(=O)c2csc(n2)C(C(C)C)N(C)C(=O)C(COC)NC1=O (stereo not drawn) [Thiamyxin B]
- CC50 at 48 h [4]: 2.25 µM
- MIC [5]: > 64 µg/mL
- MIC [6]: > 64 µg/mL
- CC50 ([1]; human): > 10 µM
- MIC [7]: 64 µg/mL (≈ 66.8 µM)
- MIC [8]: > 64 µg/mL
- IC50 [9]: 0.56 µM
- CC50 at 48 h [10]: 2.25 µM
- difference between IC50 and CC50, DENV-R2A assay [11]: fourfold
- IC50 [12]: 1.07 µM
- IC50 [2, 15]: 2.39 µM

Compound: C=C(NC(=O)C1(C)CSC(c2csc(C3(C)CSC(C(NC(=O)C(C)NC(=O)C(=CC(C)C)CO)C(C)CC)=N3)n2)=N1)C(=O)NC(COC)C(=O)N(C)C(c1nc(C(=O)O)cs1)C(C)C (stereo not drawn) [Thiamyxin C]
- CC50 at 48 h [4]: > 50 µM
- MIC [5]: 64 µg/mL (≈ 65.6 µM)
- MIC [6]: 32 µg/mL (≈ 32.8 µM)
- MIC [7]: > 64 µg/mL
- MIC [8]: 64 µg/mL (≈ 65.6 µM)
- IC50 [9]: 14.6 µM
- IC50 [12]: > 15 µM
- CC50 [3]: > 10 µM
- IC50 [2, 15]: > 10 µM
- IC50 ([2]; read-out: IC50 against hCoV-229E-luc, Huh-7.5/Fluc cells, 48 h, 33 °C, Renilla luciferase, listed as KH_Mx152_976): 20.5 µM
- IC50 ([2]; read-out: IC50 against hCoV-229E-luc, Huh-7.5/Fluc cells, 48 h, 33 °C, Renilla luciferase, listed as thiamyxin C): ~20 µM and ~20.5 µM

Compound: C=C(NC(=O)C1(C)CSC(c2csc(C3(C)CSC(C(NC(=O)C(C)NC(=O)C(=CC(C)C)CO)C(C)CC)=N3)n2)=N1)C(=O)NC(COC)C(=O)N(C)C(c1nc(C(=O)OCC(O)CO)cs1)C(C)C (stereo not drawn) [Thiamyxin D]
- effect on the antimicrobial test panel in words [13]: did not show effects
- MIC [5]: > 64 µg/mL
- MIC [6]: > 64 µg/mL
- MIC [7]: > 64 µg/mL
- MIC [8]: > 64 µg/mL
- CC50 [3]: > 10 µM
- IC50 [2, 15]: > 10 µM
- IC50 ([2]; read-out: IC50 against hCoV-229E-luc, Huh-7.5/Fluc cells, 48 h, 33 °C, Renilla luciferase, listed as KH_Mx152_1050): 23.1 µM
- IC50 ([2]; read-out: IC50 against hCoV-229E-luc, Huh-7.5/Fluc cells, 48 h, 33 °C, Renilla luciferase, listed as thiamyxin D): ~20 µM and ~23.1 µM

Compound: NC(=O)c1ncn([C@@H]2O[C@H](CO)[C@@H](O)[C@H]2O)n1 [ribavirin, reference compound]
- IC50 [9]: 2.3 µM
- IC50 [12]: 2.5 µM

Compound: Chondrosarid B
- CC50 [1]: > 10 µM
- IC50 [2, 14]: 4.19 µM
